Values of other authors, collected in patent US20240252489A1, “REPEATED ADMINISTRATION OF DIHYDROERGOTAMINE FOR TREATMENT OF FREQUENT MIGRAINE HEADACHES” (Woodward Specialty LLC, priority 2020, published 2024).

System: patients with frequent migraine headaches
Details: 15 min after administration; reported in the literature

Question: Which “subjects having pain relief” value does the source give for `N[C@@H]1c2cccnc2[C@H](OC(=O)N2CCC(n3c(=O)[nH]c4ncccc43)CC2)CC[C@H]1c1cccc(F)c1F` [Rimegepant] here?
Answer: 8%
